From patent publication US12233047B2, “Pharmaceutical combination and use thereof” (ASCENTAGE PHARMA (SUZHOU) CO., LTD., priority 2019, dated 2025) come the findings set out here.

The structures appear in SMILES notation. Where a chain is given by its changes, count along the chain named.

For one test, the target named is T1, FLT3 (D835Y) (Homo sapiens, UniProt P36888, D835Y).
T1 construct: host or cells: T7 phage in E. coli (BL21-derived) or HEK-293
T1 sequence (P36888 27-993 D835Y): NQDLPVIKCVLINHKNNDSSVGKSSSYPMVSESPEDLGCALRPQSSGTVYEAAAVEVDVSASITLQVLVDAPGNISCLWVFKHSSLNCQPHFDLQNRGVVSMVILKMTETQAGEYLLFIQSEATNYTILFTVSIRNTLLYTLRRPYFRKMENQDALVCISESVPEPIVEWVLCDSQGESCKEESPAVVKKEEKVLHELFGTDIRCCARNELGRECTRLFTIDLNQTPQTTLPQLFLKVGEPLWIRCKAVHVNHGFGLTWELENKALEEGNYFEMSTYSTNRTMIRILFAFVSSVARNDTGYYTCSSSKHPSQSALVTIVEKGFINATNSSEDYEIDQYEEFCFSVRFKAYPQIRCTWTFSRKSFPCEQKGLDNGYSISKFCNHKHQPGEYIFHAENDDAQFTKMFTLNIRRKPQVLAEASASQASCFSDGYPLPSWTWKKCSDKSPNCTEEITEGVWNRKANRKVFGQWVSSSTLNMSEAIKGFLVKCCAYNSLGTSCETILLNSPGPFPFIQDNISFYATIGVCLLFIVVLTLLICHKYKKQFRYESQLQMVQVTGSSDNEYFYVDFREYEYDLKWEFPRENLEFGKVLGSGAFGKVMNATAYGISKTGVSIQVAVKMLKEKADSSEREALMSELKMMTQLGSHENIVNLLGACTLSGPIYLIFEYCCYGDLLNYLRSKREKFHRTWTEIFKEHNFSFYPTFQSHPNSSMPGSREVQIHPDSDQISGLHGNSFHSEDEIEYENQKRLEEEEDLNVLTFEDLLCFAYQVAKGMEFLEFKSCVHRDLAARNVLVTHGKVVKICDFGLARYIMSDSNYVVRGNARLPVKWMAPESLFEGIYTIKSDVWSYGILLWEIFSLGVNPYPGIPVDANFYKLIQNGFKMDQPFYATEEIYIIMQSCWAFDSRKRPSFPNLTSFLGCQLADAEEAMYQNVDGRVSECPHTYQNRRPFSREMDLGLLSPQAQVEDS
In words: KINOMEscan kinase binding assay, FLT3 (D835Y). The protocol:
(§1) The kinase assay was conducted using KINOMEscan™.
(§2) Kinase-tagged T7 phage strains were grown in parallel in 24-well blocks in an E. coli host derived from the BL21 strain. E. coli were grown to log-phase and infected with T7 phage from a frozen stock (multiplicity of infection=0.4) and incubated with shaking at 32° C. until lysis (90-150 minutes). The lysates were centrifuged (6,000×g) and filtered (0.2 μm) to remove cell debris. The remaining kinases were produced in HEK-293 cells and subsequently tagged with DNA for qPCR detection. Streptavidin-coated magnetic beads were treated with biotinylated small molecule ligands for 30 minutes at room temperature to generate affinity resins for kinase assays. The liganded beads were blocked with excess biotin and washed with blocking buffer (SeaBlock (Pierce), 1% BSA, 0.05% Tween 20, 1 mM DTT) to remove unbound ligand and to reduce non-specific phage binding. Binding reactions were assembled by combining kinases, liganded affinity beads, and test compound (Compound 23) in 1× binding buffer (20% SeaBlock, 0.17×PBS, 0.05% Tween 20, 6 mM DTT). Test compound were prepared as 40× stocks in 100% DMSO and directly diluted into the assay. All reactions were performed in polypropylene 384-well plates in a final volume of 0.04 ml. […] The kinase concentration in the eluates was measured by qPCR. […]

A further test addresses T2, FLT3 (wild type) (Homo sapiens, UniProt P36888).
T2 construct: host or cells: T7 phage in E. coli (BL21-derived) or HEK-293
T2 sequence (P36888 27-993): T1 sequence (P36888 27-993 D835Y) with Y809D
Put plainly: KINOMEscan kinase binding assay, FLT3 (wild type). Conditions: lower % Ctrl = stronger binding. Here is the method:
as §1, §2

On to `Cc1ccc(C(=O)Nc2ccc(CN3CCN(C)CC3)c(C(F)(F)F)c2)cc1C#Cc1cnc2[nH]ncc2c1` [Compound 23, 3-(2-(1H-pyrazolo[3,4-b]pyridin-5-yl)ethynyl)-4-methyl-N-(4-((4-methylpiperazin-1-yl)methyl)-3-(trifluoromethyl)phenyl)benzamide], for which the “% Ctrl@10 nM” value at FLT3 (D835Y) (10 nM) is 42 % Ctrl; at FLT3 (wild type) (10 nM) it was 2.4 % Ctrl. Also, the “% Ctrl@100 nM” value worked out at 17 % Ctrl at FLT3 (D835Y) (100 nM) and 0.75 % Ctrl on FLT3 (wild type) (100 nM).
